In the NIST ThermoML archive (doi:10.1007/s10765-006-0051-4):
± gives the expanded uncertainty stated by the source.

Test: xn = mol fraction of the nth substance listed
Conditions: Gas, Oscillating disk viscometry

FC(F)C(F)(F)F [pentafluoroethane] + CCC
Conditions	viscosity [mPa·s]
373.15 K, 3429.9 kPa, x1 = 0.5011	0.01593 ± 0.00052
373.15 K, 3613.1 kPa, x1 = 0.5011	0.01624 ± 0.00053
373.15 K, 3684.6 kPa, x1 = 0.7503	0.01798 ± 0.00057
373.15 K, 3737.3 kPa, x1 = 0.5011	0.01642 ± 0.00054
373.15 K, 3960.9 kPa, x1 = 0.5011	0.01685 ± 0.00055
373.15 K, 3969.4 kPa, x1 = 0.7503	0.01855 ± 0.00059
373.15 K, 4171.6 kPa, x1 = 0.5011	0.0173 ± 0.00056
373.15 K, 4227.4 kPa, x1 = 0.7503	0.01913 ± 0.0006
373.15 K, 4377 kPa, x1 = 0.5011	0.01777 ± 0.00057
373.15 K, 4411 kPa, x1 = 0.7503	0.01964 ± 0.00061
373.15 K, 4576.1 kPa, x1 = 0.5011	0.01833 ± 0.00058
373.15 K, 4607.7 kPa, x1 = 0.7503	0.02019 ± 0.00062
373.15 K, 4760.3 kPa, x1 = 0.5011	0.01889 ± 0.00059
373.15 K, 4816.2 kPa, x1 = 0.7503	0.02092 ± 0.00064
373.15 K, 4878.3 kPa, x1 = 0.5011	0.01931 ± 0.0006
373.15 K, 5001.8 kPa, x1 = 0.7503	0.0217 ± 0.00066
373.15 K, 5157.2 kPa, x1 = 0.7503	0.02229 ± 0.00067
373.15 K, 5305.9 kPa, x1 = 0.7503	0.02305 ± 0.00069
398.15 K, 101.4 kPa, x1 = 0.5011	0.01447 ± 0.00049
398.15 K, 101.8 kPa, x1 = 0.7503	0.01589 ± 0.00052
398.15 K, 200.6 kPa, x1 = 0.5011	0.01454 ± 0.00049
398.15 K, 262.5 kPa, x1 = 0.7503	0.01594 ± 0.00052
398.15 K, 348.4 kPa, x1 = 0.5011	0.01457 ± 0.00049
398.15 K, 488.6 kPa, x1 = 0.7503	0.01602 ± 0.00053
398.15 K, 541 kPa, x1 = 0.5011	0.01463 ± 0.00049
398.15 K, 733.4 kPa, x1 = 0.7503	0.01606 ± 0.00053
398.15 K, 783.2 kPa, x1 = 0.5011	0.01467 ± 0.0005
398.15 K, 977 kPa, x1 = 0.7503	0.01615 ± 0.00053
398.15 K, 1028.7 kPa, x1 = 0.5011	0.01479 ± 0.0005
398.15 K, 1218.3 kPa, x1 = 0.7503	0.01622 ± 0.00053
398.15 K, 1272.7 kPa, x1 = 0.5011	0.01488 ± 0.0005
398.15 K, 1476.6 kPa, x1 = 0.7503	0.01635 ± 0.00053
398.15 K, 1520 kPa, x1 = 0.5011	0.01497 ± 0.0005
398.15 K, 1712.5 kPa, x1 = 0.7503	0.01647 ± 0.00054
398.15 K, 1748.1 kPa, x1 = 0.5011	0.01511 ± 0.00051
398.15 K, 1944.3 kPa, x1 = 0.7503	0.01666 ± 0.00054
398.15 K, 2037 kPa, x1 = 0.5011	0.01521 ± 0.00051
398.15 K, 2176.8 kPa, x1 = 0.7503	0.01672 ± 0.00054
398.15 K, 2274.1 kPa, x1 = 0.5011	0.0154 ± 0.00051
398.15 K, 2388.9 kPa, x1 = 0.7503	0.01694 ± 0.00055
398.15 K, 2490.3 kPa, x1 = 0.5011	0.01548 ± 0.00052
398.15 K, 2622.4 kPa, x1 = 0.7503	0.01715 ± 0.00055
398.15 K, 2777.4 kPa, x1 = 0.5011	0.01568 ± 0.00052
398.15 K, 2888.9 kPa, x1 = 0.7503	0.01734 ± 0.00056
398.15 K, 3059.7 kPa, x1 = 0.5011	0.01592 ± 0.00052
398.15 K, 3178.3 kPa, x1 = 0.7503	0.01765 ± 0.00056
398.15 K, 3336.8 kPa, x1 = 0.5011	0.01626 ± 0.00053
398.15 K, 3405.7 kPa, x1 = 0.7503	0.01794 ± 0.00057
398.15 K, 3609.9 kPa, x1 = 0.5011	0.0165 ± 0.00054
398.15 K, 3624.9 kPa, x1 = 0.7503	0.01817 ± 0.00058
398.15 K, 3822.7 kPa, x1 = 0.7503	0.01844 ± 0.00058
398.15 K, 3842.8 kPa, x1 = 0.5011	0.01681 ± 0.00055
398.15 K, 3992.9 kPa, x1 = 0.7503	0.01868 ± 0.00059
398.15 K, 4062.4 kPa, x1 = 0.5011	0.01705 ± 0.00055
398.15 K, 4225.4 kPa, x1 = 0.7503	0.01902 ± 0.0006
398.15 K, 4329.6 kPa, x1 = 0.5011	0.01744 ± 0.00056
398.15 K, 4523.9 kPa, x1 = 0.7503	0.01947 ± 0.00061
398.15 K, 4652.3 kPa, x1 = 0.5011	0.01792 ± 0.00057
398.15 K, 4690.7 kPa, x1 = 0.7503	0.01983 ± 0.00062
398.15 K, 4804.6 kPa, x1 = 0.7503	0.02002 ± 0.00062
398.15 K, 5014.1 kPa, x1 = 0.5011	0.01853 ± 0.00059
398.15 K, 5040.9 kPa, x1 = 0.7503	0.02051 ± 0.00063
398.15 K, 5179.6 kPa, x1 = 0.5011	0.01885 ± 0.00059
398.15 K, 5224.5 kPa, x1 = 0.7503	0.02087 ± 0.00064
398.15 K, 5374.2 kPa, x1 = 0.5011	0.01934 ± 0.0006
398.15 K, 5462.4 kPa, x1 = 0.7503	0.0215 ± 0.00065
398.15 K, 5801.5 kPa, x1 = 0.7503	0.0224 ± 0.00068
423.15 K, 101.3 kPa, x1 = 0.5011	0.01525 ± 0.00051
423.15 K, 102.4 kPa, x1 = 0.7503	0.01671 ± 0.00054
423.15 K, 194.6 kPa, x1 = 0.7503	0.01672 ± 0.00054
423.15 K, 200.5 kPa, x1 = 0.5011	0.01531 ± 0.00051
423.15 K, 336.4 kPa, x1 = 0.7503	0.01676 ± 0.00054
423.15 K, 390.6 kPa, x1 = 0.5011	0.01537 ± 0.00051
423.15 K, 570.1 kPa, x1 = 0.7503	0.01682 ± 0.00055
423.15 K, 586.2 kPa, x1 = 0.5011	0.01537 ± 0.00051
423.15 K, 781.9 kPa, x1 = 0.5011	0.01543 ± 0.00051
423.15 K, 812.9 kPa, x1 = 0.7503	0.01692 ± 0.00055
423.15 K, 960.2 kPa, x1 = 0.5011	0.01542 ± 0.00051
423.15 K, 1055.8 kPa, x1 = 0.7503	0.01696 ± 0.00055
423.15 K, 1175.7 kPa, x1 = 0.5011	0.01552 ± 0.00052
423.15 K, 1254.9 kPa, x1 = 0.7503	0.01706 ± 0.00055
423.15 K, 1421.7 kPa, x1 = 0.5011	0.01565 ± 0.00052
423.15 K, 1448.9 kPa, x1 = 0.7503	0.01715 ± 0.00055
423.15 K, 1640 kPa, x1 = 0.7503	0.01724 ± 0.00056
423.15 K, 1658.8 kPa, x1 = 0.5011	0.01573 ± 0.00052
423.15 K, 1898.5 kPa, x1 = 0.5011	0.01584 ± 0.00052
423.15 K, 1906.4 kPa, x1 = 0.7503	0.0174 ± 0.00056
423.15 K, 2128.2 kPa, x1 = 0.7503	0.01752 ± 0.00056
423.15 K, 2142.2 kPa, x1 = 0.5011	0.01598 ± 0.00053
423.15 K, 2375.9 kPa, x1 = 0.7503	0.01766 ± 0.00056
423.15 K, 2381.7 kPa, x1 = 0.5011	0.01613 ± 0.00053
423.15 K, 2575.8 kPa, x1 = 0.5011	0.01623 ± 0.00053
423.15 K, 2591.5 kPa, x1 = 0.7503	0.01781 ± 0.00057
423.15 K, 2903.1 kPa, x1 = 0.5011	0.01643 ± 0.00054
423.15 K, 2919.3 kPa, x1 = 0.7503	0.01808 ± 0.00057
423.15 K, 3148.8 kPa, x1 = 0.5011	0.01663 ± 0.00054
423.15 K, 3160.1 kPa, x1 = 0.7503	0.01824 ± 0.00058
423.15 K, 3289.3 kPa, x1 = 0.7503	0.01836 ± 0.00058
423.15 K, 3412.8 kPa, x1 = 0.5011	0.01685 ± 0.00055
423.15 K, 3552.1 kPa, x1 = 0.7503	0.01859 ± 0.00059
423.15 K, 3651.4 kPa, x1 = 0.5011	0.01705 ± 0.00055
423.15 K, 3813.6 kPa, x1 = 0.7503	0.01886 ± 0.00059
423.15 K, 3903.9 kPa, x1 = 0.5011	0.01729 ± 0.00056
423.15 K, 4061.5 kPa, x1 = 0.7503	0.01916 ± 0.0006
423.15 K, 4138.6 kPa, x1 = 0.5011	0.01756 ± 0.00056
423.15 K, 4298.5 kPa, x1 = 0.7503	0.01944 ± 0.00061
423.15 K, 4492.6 kPa, x1 = 0.7503	0.01962 ± 0.00061
423.15 K, 4533.7 kPa, x1 = 0.5011	0.01792 ± 0.00057
423.15 K, 4689.8 kPa, x1 = 0.7503	0.01988 ± 0.00062
423.15 K, 4822.7 kPa, x1 = 0.5011	0.01823 ± 0.00058
423.15 K, 4902.5 kPa, x1 = 0.7503	0.02023 ± 0.00063
423.15 K, 5070 kPa, x1 = 0.7503	0.02042 ± 0.00063
423.15 K, 5073.7 kPa, x1 = 0.5011	0.01858 ± 0.00059
423.15 K, 5285.8 kPa, x1 = 0.7503	0.02077 ± 0.00064
423.15 K, 5357.3 kPa, x1 = 0.5011	0.01897 ± 0.0006
423.15 K, 5493.3 kPa, x1 = 0.7503	0.02108 ± 0.00064
423.15 K, 5672.2 kPa, x1 = 0.7503	0.02139 ± 0.00065
423.15 K, 5701.1 kPa, x1 = 0.5011	0.01947 ± 0.00061
423.15 K, 5887.3 kPa, x1 = 0.7503	0.02175 ± 0.00066
423.15 K, 6049.1 kPa, x1 = 0.5011	0.02 ± 0.00062
423.15 K, 6270.6 kPa, x1 = 0.5011	0.02038 ± 0.00063
423.15 K, 6494.5 kPa, x1 = 0.5011	0.0208 ± 0.00064
423.15 K, 6710.2 kPa, x1 = 0.5011	0.02129 ± 0.00065
